Test results from patent US4371465A, “Mammalian collagenase inhibitors” (American Home Products Corporation, priority 1981, dated 1983).

System: collagenase
Assay: Collagenase inhibition (acetyl 14C collagen hydrolysis, procedure of Sellers et al.)
Assay type: biochemical
Conditions: 2 mM inhibitor; 35° C., 5 to 18 hours; Tris-CaCl2 pH 7.4; vs control devoid of inhibitor
Method: The inhibitory effect of the compounds of this invention toward collagenase was determined following the procedure of Sellers et al., Biochem J. 167 353-360 (1977) whereby the 2mM of the inhibitor being tested is incubated at 35° C. for from 5 to 18 hours (depending upon the potency of the collagenase) with collagen and collagenase (buffered with Tris®-CaCl2; pH 7.4). The collagen is acetyl ^14 C collagen. The samples are centrifuged and an aliquot removed for assay on a scintillation counter. Because native collagen forms insoluble fibrils under the test conditions, the supernatant liquid contains radioactivity as a measure of hydrolysis. The collagenase activity in the presence of 2mM inhibitor is compared to activity in a control devoid of inhibitor and the results reported as percent inhibition of collagenase activity. Each of the compounds of this invention have been established as active collagenase inhibitors by the test procedure.
The following example illustrates the preparation of a typical, representative compound of the invention. The precent inhibition of collagenase activity at the 2 mM polypeptide level in accordance with the previously described standard testing procedure is provided after the preparatory description is compared to D-penicillamine alone, the latter being a known collagenase inhibitor.

How did the Percent inhibition collagenase turn out when `CC(C)(S)[C@@H](N)C(=O)O` [D-penicillamine] was run?
Its Percent inhibition collagenase is 39.
